# Data: ChEMBL document CHEMBL3407449, “Synthesis, anticancer and radiosensitizing evaluation of some novel sulfonamide derivatives” (Eur J Med Chem, 2015)
# Columns and labels:
# [1] = test system: HepG2; assay: Cytotoxicity against human HepG2 cells assessed as surviving fraction ratio at 25 uM after 48 hrs by SRB assay relative to control; type: functional
# [2] = test system: HepG2; assay: Cytotoxicity against human HepG2 cells assessed as surviving fraction ratio at 12.5 uM after 48 hrs by SRB assay relative to control; type: functional
# [3] = test system: HepG2; assay: Cytotoxicity against human HepG2 cells assessed as surviving fraction ratio at 5 uM after 48 hrs by SRB assay relative to control; type: functional
# [4] = test system: HepG2; assay: Cytotoxicity against human HepG2 cells assessed as surviving fraction ratio after 48 hrs by SRB assay relative to control; type: functional, cell-based
# [5] = test system: HepG2; assay: Cytotoxicity against human HepG2 cells assessed as surviving fraction ratio at 50 uM after 48 hrs by SRB assay relative to control; type: functional
# [6] = test system: HepG2; assay: Cytotoxicity against human HepG2 cells assessed as surviving fraction ratio incubated for 2 hrs prior to 8Gy gamma-irradiation measured after 48 hrs by ELISA reader relative to control; type: functional, cell-based; details: HepG2, light or radiation study
# [7] = test system: HepG2; assay: Cytotoxicity against human HepG2 cells assessed as surviving fraction ratio at 25 uM incubated for 2 hrs prior to 8Gy gamma-irradiation measured after 48 hrs by ELISA reader relative to control; type: functional
# [8] = test system: HepG2; assay: Cytotoxicity against human HepG2 cells assessed as surviving fraction ratio at 50 uM incubated for 2 hrs prior to 8Gy gamma-irradiation measured after 48 hrs by ELISA reader relative to control; type: functional
# [9] = test system: HepG2; assay: Cytotoxicity against human HepG2 cells assessed as surviving fraction ratio at 5 uM incubated for 2 hrs prior to 8Gy gamma-irradiation measured after 48 hrs by ELISA reader relative to control; type: functional
# [10] = test system: HepG2; assay: Cytotoxicity against human HepG2 cells assessed as surviving fraction ratio at 12.5 uM incubated for 2 hrs prior to 8Gy gamma-irradiation measured after 48 hrs by ELISA reader relative to control; type: functional
# [11] = Homo sapiens, HepG2, 48 h, read-out: IC50
Compound,Ratio [1],Ratio [2],Ratio [3],"IC50 [4, 11] [µM]",Ratio [5],IC50 [6] [µM],Ratio [7],Ratio [8],Ratio [9],Ratio [10],IC50 ([4]; hepg2)
Cc1ccc(S(=O)(=O)Nc2ccc(-c3cc(-c4ccc([N+](=O)[O-])cc4)n(C(=S)NN)n3)cc2)cc1,0.507,1.189,1.766,45.3,0.53,–,–,–,–,–,–
C/C(=N/NC(=O)/C(C#N)=C/N(C)C)c1ccc(NS(=O)(=O)c2ccc(C)cc2)cc1,0.546,0.877,1.141,37.8,0.378,–,–,–,–,–,–
Cc1ccc(S(=O)(=O)Nc2ccc(C(=O)/C=C/c3ccc([N+](=O)[O-])cc3)cc2)cc1,0.392,0.348,0.476,26,0.495,20.5,0.368,0.249,0.558,0.451,–
C/C(=N\n1c(N)cc(N)c(C#N)c1=O)c1ccc(NS(=O)(=O)c2ccc(C)cc2)cc1,0.577,0.761,0.937,37,0.385,–,–,–,–,–,–
Cc1ccc(S(=O)(=O)Nc2ccc(C(/C=C/c3ccc([N+](=O)[O-])cc3)=N\O)cc2)cc1,1.351,1.769,1.723,–,0.632,–,–,–,–,–,Not Active
C/C(=N\NC(=O)c1sc(N)c(C#N)c1N)c1ccc(NS(=O)(=O)c2ccc(C)cc2)cc1,0.39,0.383,0.571,21.8,0.323,5.8,0.105,0.174,0.291,0.227,–
Cc1ccc(S(=O)(=O)Nc2ccc(C(=O)/C=C/c3ccc(Br)cc3)cc2)cc1,0.43,0.505,0.584,30.3,0.445,26.8,0.394,0.408,0.591,0.471,–
C/C(=N/NC(=O)C(C#N)C(=S)S)c1ccc(NS(=O)(=O)c2ccc(C)cc2)cc1 (stereo not given),0.291,0.229,0.344,11,0.414,5,0.189,0.158,0.245,0.206,–
Cc1ccc(S(=O)(=O)Nc2ccc(-c3cc(-c4ccc([N+](=O)[O-])cc4)[nH]c(=O)n3)cc2)cc1,0.732,0.95,1.619,46.3,0.481,–,–,–,–,–,–
Cc1ccc(S(=O)(=O)Nc2ccc(-c3cc(-c4ccc([N+](=O)[O-])cc4)n(-c4ccccc4)n3)cc2)cc1,0.923,1.841,2.085,–,0.536,–,–,–,–,–,Not Active
Cc1ccc(S(=O)(=O)Nc2ccc(-c3cc(-c4ccc([N+](=O)[O-])cc4)n(C(N)=S)n3)cc2)cc1,1.078,1.759,1.907,–,0.5,–,–,–,–,–,Not Active
Cc1ccc(S(=O)(=O)Nc2ccc(C(=O)/C=C/c3ccc(Cl)cc3)cc2)cc1,0.591,1.478,2.16,43.3,0.402,–,–,–,–,–,–
C/C(=N/n1c(N)cc(N)c(C#N)c1=O)c1ccc(NS(=O)(=O)c2ccccc2)cc1,0.312,0.556,0.748,25.5,0.321,11.5,0.299,0.34,0.395,0.194,–
C/C(=N\NC(=O)CC#N)c1ccc(NS(=O)(=O)c2ccccc2)cc1,0.361,0.778,0.881,28,0.242,–,–,–,–,–,–
C/C(=N\NC(=O)CC#N)c1ccc(NS(=O)(=O)c2ccc(C)cc2)cc1,0.349,0.53,0.837,26,0.293,–,–,–,–,–,–
C/C(=N\NC(=O)c1sc(N)c(C#N)c1N)c1ccc(NS(=O)(=O)c2ccccc2)cc1,0.239,0.456,0.869,23.3,0.274,18.3,0.253,0.322,0.526,0.386,–
Cc1ccc(S(=O)(=O)Nc2ccc(-c3cc(-c4ccc([N+](=O)[O-])cc4)[nH]c(=S)n3)cc2)cc1,0.486,0.805,1.066,36.5,0.398,–,–,–,–,–,–
Cc1ccc(S(=O)(=O)Nc2ccc(-c3cc(-c4ccc([N+](=O)[O-])cc4)[nH]n3)cc2)cc1,0.522,1.197,1.772,44.8,0.508,–,–,–,–,–,–
C/C(=N/NC(=O)c1sc2c(c1N)CCCC2)c1ccc(NS(=O)(=O)c2ccc(C)cc2)cc1,0.331,0.528,0.868,25.5,0.277,20,0.329,0.229,0.521,0.524,–
Cc1ccc(S(=O)(=O)Nc2ccc(C(=O)/C=C/c3ccccc3)cc2)cc1,1.017,2.032,2.385,–,0.529,–,–,–,–,–,Not Active
CC(=O)c1ccc(NS(=O)(=O)c2ccc(C)cc2)cc1,0.547,0.726,1.048,35.8,0.367,–,–,–,–,–,–
COc1ccc(-c2c(C#N)c(N)n(/N=C(/C)c3ccc(NS(=O)(=O)c4ccc(C)cc4)cc3)c(=O)c2C#N)cc1,0.363,0.696,0.984,31.8,0.375,–,–,–,–,–,–
Cc1ccc(S(=O)(=O)Nc2ccc(C(=O)/C=C/c3ccc(F)cc3)cc2)cc1,0.383,0.497,1.461,39.3,0.551,–,–,–,–,–,–
Cc1ccc(/C=C/C(=O)c2ccc(NS(=O)(=O)c3ccc(C)cc3)cc2)cc1,0.781,1.616,1.931,49.8,0.489,–,–,–,–,–,–
CC(=O)c1ccc(NS(=O)(=O)c2ccccc2)cc1,0.464,0.719,0.891,35.3,0.417,–,–,–,–,–,–
